Data: patent publication US12180159B2, “Activators of the unfolded protein response” (The Board of Trustees of the University of Illinois, priority 2018, dated 2024)

How the values were obtained:
[1] = system: T47D, TYS-4 and TDG-1 cells; assay: MTS proliferation assay, T47D, TYS and TDG cells; type: cell-based, human; conditions: 4 days
Protocol: FIG. 30 compares the ability of BHPI and test compounds to inhibit proliferation of T47D, TYS and TDG cells. T47D cells were in medium containing 10 FBS (which contains estrogen), TYS-4 and TDG-1 cells were in medium containing 10% cd-FBS (estrogen depleted). Cells are plated at 2,000 cells/well in 96 well plates. After 24 hours in medium containing FBS or charcoal-dextran treated FBS (depleted of endogenous estrogens), the indicated concentration of each compound (in DMSO at 1/1000th of the volume of medium) was added. After 2 days the medium was changed, and the compounds were added again. After 2 additional days (4 days total) MTS assays are used to evaluate cell proliferation. (n=6±S.E.M.).

[2] = system: TDG cells (T47DERαD538G); assay: Trypan Blue exclusion cell death assay, TDG cells; type: cell-based, human; conditions: 24 hours; for killing of TDG-Luc cells: dose response
Description: (§1) TRYPAN BLUE: For decades, viable cells have been measured by their ability to exclude the dye Trypan Blue. […] Dead cells, which have lost membrane integrity, take up the dye and are blue. Thus, the percentage of dead cells is the percentage of cells that are Trypan Blue positive out of the total cell population. Quantitative assessment of Trypan Blue uptake uses a cell counter from Fisher. Since the assay is instrument based, there is no observer bias in determining the percentage of Trypan Blue positive cells.
(§2) TRYPAN BLUE ASSAYS: Assays are performed on cells in 6 well plates: 300,000 cells are plated in each well of a 6 well plate in 3 ml of medium. After 24 hours, the DMSO vehicle or the indicated compound is added (in 1000th of the vol.) The cells incubated for an additional 24 hours, and then harvested in 0.25 ml of trypsin, followed after harvest by 0.75 ml of medium. The cells are spun down and resuspended in 100-200 μl of medium left that is over the cell pellet (resuspend cells by pipetting up and down a few times). Add 10 μl to 10 μl of trypan blue. Then 10 μl is inserted into the counting slide. After inserting the slide into the Fisher TC20 counting is automatic (these many cells are needed because an accurate ratio of Trypan Blue positive to Trypan Blue negative cells requires about 200 cells in the field the instrument counts).
The Trypan Blue cell death assay was used to evaluate the ability of the active enantiomer of C-105 [(−)-105] to kill ERα positive TDG-Luc cells. For all studies, 300,000 TDG-Luc cells/well in 10% FBS were plated in a 6 well plate in triplicate. 24 hours after plating, the indicated concentrations the active enantiomer of (−)-105, or BHPI (top) ICI, or OHT (Lower left) or (+)-105 (lower right) were added. After 24 hours, the cells were harvested, and the % dead cells was determined by automated Trypan Blue exclusion using the Countess II automated hemocytometer. Percentage of viable cells was calculated by doing 100−(Cell Death %). (n=3±SEM).
TDG cells were incubated for 24 hours with 75 nM of BHPI or 75 nM of each of the indicated test compounds: 4, 6 and (±)-105 (enantiomers not separated). Cell death was determined using the instrument-based Trypan Blue exclusion assay. Structures are in the Synthesis section. […] (n=3±SEM).

[3] = system: MCF-7 ERα Y537S-luciferase cells; assay: Long-term cell culture experiment, MCF-7Y537S cells; type: cell-based, human; conditions: conditions as FIG. 15
[4] = system: ERα positive and ERα negative cell lines; type: cell-based
Protocol: ERα positive MCF-7 breast cancer, Caov-3 ovarian cancer and ECC-1 uterine cancer cells and ERα negative MDA-MB-231 human breast cancer cells and HeLa, human cervical carcinoma cells and MCF-10A human mammary epithelial cells were plated at 10,000 cells/well (96 well plate) in 50 μl of medium. After about 18 hours, an additional 50 μl of medium containing 2× the desired final concentration of the test compound (C-105) was added to each well (final vol. 100 μl/well). After 24 hours Alamar Blue reagent was added and fluorescence in the wells was read after 1 hour (BMG PheraStar Microplate Reader). % relative death was determined by setting the reading for 10,000 nM raptinal-treated cells to 100% dead cells and the reading for vehicle-treated cells to 0% dead cells. (Data is the average±SEM of 3 independent experiments with 5 biological replicates for each sample within each independent experiment.)
FIG. 3 compares the ability of (±)-105 to kill ERα positive and ERα negative cells. The dose response tests the ability of (±)-105 to rapidly kill ERα positive and ERα negative cells. […] After 24 hours Alamar Blue reagent was added and fluorescence in the wells was read. % relative death was determined by setting the reading for […] raptinal-treated cells to 100% dead cells and the reading for vehicle-treated cells to 0% dead cells. […]

[5] = system: TYS and TDG breast cancer cells; assay: Killing of TYS and TDG breast cancer cells by endocrine therapy drugs; type: cell-based, human
[6] = system: ERα Negative MCF-10A cells; assay: Trypan Blue exclusion cell death assay, MCF-10A cells; type: cell-based; conditions: 75 nM, 24 hours
Description: as §1, §2
In FIG. 28, neither the test compounds nor BHPI kill non-tumorigenic ERα Negative MCF-10A breast cells. ERα Negative MCF-10A cells were maintained for 24 hours in DMSO vehicle or 75 nM of BHPI or 75 nM of each of the indicated test compounds: 4, 6 and 105. Cell death was determined using the instrument-based Trypan Blue exclusion assay. (n=3±SEM).

[7] = system: MCF-7 tumors; assay: MCF-7 orthotopic tumor model; type: in vivo, mouse; conditions: mouse, in vivo
Protocol: FIG. 39. SERK-F6 eradicates wild-type ERα tumors via hyperactivation of aUPR. a, MCF-7 orthotopic tumors were established in Nu/J ovariectomized mice supplemented with a 60 day E2 pellet (0.36 mg) and grown to ˜400 mm^3 (28 days to establish), randomized, then treated with vehicle daily (n=3), vehicle weekly (n=3), fulv. weekly (5 mg/mouse, s.c., n=6), SERK-F6 daily (10 or 40 mg/kg p.o.). Vehicle arms were averaged. p values: *: p<0.05, **: p<0.01, ***: p<0.001, ****: p<0.0001. Tumor images were taken at the end of the study (day 21) and are representative of all tumors (n=6). b-e, MCF-7 cells were orthotopically bi-laterally grafted and tumors were grown until total tumor burden was ˜ 400 mm^3 prior to daily treatment with vehicle or SERK-F6 (40 mg/kg p.o.). Mice (n=5 per arm) were sacrificed after 3 days (b,c) and 7 days (d,e) and tumors harvested. […] Vinculin (Vin) was used as a loading control. […] Error bars represent S.E.M.
FIG. 40. SERK-F6 is tolerated, reaches biologically relevant concentrations, and crosses the blood-brain barrier in vivo. a, Serum concentrations of SERK-F6 after indicated doses, route of administration, and time. Concentration was determined via LC/MS/MS analysis. […] AUC: Area Under the Curve, Cmax: maximum concentration, t1/2: half-life. c,d, Mice (CD-1) were treated with the indicated doses and times, then sacrificed and their serum and brains collected. Concentrations were determined via LC/MS/MS analysis. […] Treatment arms: vehicle daily (n=3), vehicle weekly (n=3), fulv. weekly (5 mg/mouse, s.c., n=6), SERK-F6 daily (10 or 40 mg/kg p.o.). Vehicle arms were combined. g, Mass of tumors harvested from mice. h, observed murine weight during this MCF-7 study (n=6). i,j, Tumor measurements for MCF-7 bilateral orthotopic model (n=4-5).
To probe the efficacy of SERK-F6 for killing ERα positive tumors, large MCF-7 tumors were grown and then intervened with therapy. […] The mice were then sacrificed prior to complete tumor eradication.

[8] = system: MCF-7 and TYS-Luc cells; assay: Cell death with 2-APB or thapsigargin (Trypan Blue exclusion); type: cell-based, human; conditions: 2-APB
Protocol: ERα positive MCF-7 and TYS-Luc were treated with DMSO vehicle (Veh), or BHPI or (−)-105 plus or minus 2-APB for the indicated times. Cells death was determined using the instrument-based Trypan Blue exclusion assay. […] This is consistent with (−)-105 inducing powerful lethal activation of the anticipatory UPR pathway. (n=3±SEM). […] TYS-Luc cells were maintained in DMSO vehicle (Veh) or BHPI, or (−)-105 with or without thapsigargin (THG) for the indicated times. Blocking the decline in ATP levels (FIG. 19) with THG inhibited (−)-105-induced cell death. […] (n=3±SEM).

[9] = system: OVCAR-3 cells; conditions: OVCAR-3 orthotopic xenograft
[10] = system: TYS cells (T47DERαY537S); assay: Trypan Blue exclusion cell death assay, TYS cells; type: cell-based, human; conditions: 24 hours
Description: as §1, §2
TYS cells were incubated for 24 hours with 35 nM of BHPI or 35 nM of each of the indicated test compounds: 2, 4, and 105. Cell death was determined using the instrument-based Trypan Blue exclusion assay. (n=3±SEM).
TYS cells were incubated for 24 hours with 50 nM of BHPI or 50 nM of each of the indicated test compounds: 4, 6 and 105. Cell death was determined using the instrument-based Trypan Blue exclusion assay. (n=3±SEM).

[11] = system: Caov-3 cells; assay: Cell death of Caov-3 ovarian cancer cells (automated Trypan Blue exclusion); type: cell-based, human; conditions: 24 hours
Protocol: FIG. 33. 105, but not BHPI, kills therapy-resistant ovarian CaOV-3 ovarian cancer cells. (±)-105; Cell death assay: Automated Trypan Blue exclusion. (24 hours post (±)-105) FIG. 34. (−)105 nearly eradicates ER+ drug-resistant tumors. Orthotopic breast cancer model, TYS-Luc cells, 40 mg/kg (−)-105 i.p., daily. 7 d Post injection image is a much longer exposure at higher gain than before injection image.
Caov3: Drug resistant ERα positive ovarian cancer cells. […] These cells are completely resistant to tamoxifen and fulvestrant and partially resistant to cisplatin and paclitaxel.

For `COc1ccc(C2(c3ccc(O)cc3)C(=O)Nc3c(C)cccc32)cc1` (centres unmarked) [compound 2, 3-(4-hydroxyphenyl)-3-(4-methoxyphenyl)-7-methylindolin-2-one], the “effectiveness in killing ERα positive breast cancer cells compared to BHPI” value (from here on “effectiveness … compared to BHPI”) [1] was “more effective than BHPI”.

In the case of `O=C1Nc2c(C(F)(F)F)cccc2C1(c1ccc(O)cc1)c1ccc(OC(F)(F)F)cc1` (single isomer, unassigned; (+)) [(+)-105, 3-(4-hydroxyphenyl)-3-(4-(trifluoromethoxy)phenyl)-7-(trifluoromethyl)indolin-2-one], the “killing of TDG-Luc cells” value [2] is reported as “inactive and does not kill”, the “effect on MCF-7Y537S cells in long-term experiments” value [3] is reported as “inactive” and the “effect of the inactive enantiomer in ERα positive and ERα negative cell lines” value [4] is reported as “ineffective and not toxic”.

With `CC/C(=C(\c1ccccc1)c1ccc(OCCN(C)C)cc1)c1ccccc1` [tamoxifen] the “ability to kill TYS and TDG breast cancer cells” value [5] was “no ability at all to kill”.

For `Cc1cccc2c1NC(=O)C2(c1ccc(O)cc1)c1ccc(OC(F)(F)F)cc1` (centres unmarked) [compound 6, 3-(4-hydroxyphenyl)-7-methyl-3-(4-(trifluoromethoxy)phenyl)indolin-2-one], the “death of ERα Negative MCF-10A cells” value [6] was “neither BHPI nor any of the test compounds induce significant death” and the “effectiveness … compared to BHPI” value [1] was “more effective than BHPI”.

`C[C@]12CC[C@@H]3c4ccc(O)cc4C[C@@H](CCCCCCCCC[S+]([O-])CCCC(F)(F)C(F)(F)F)[C@H]3[C@@H]1CC[C@@H]2O` (some centres unmarked) [fulvestrant, reference compound] was tested, and the “killing of TDG-Luc cells” value [2] was “do not kill”, the “effect on large established MCF-7 tumors” value [7] was “dramatic effects against these large and established tumors are not obtained” and the “ability to kill TYS and TDG breast cancer cells” value [5] was “no ability at all to kill”.

With `NCCOB(c1ccccc1)c1ccccc1` [2-APB] the “effect on (−)-105-induced cell death” value ([8]; 45 and 60 min.) was “partially blocked” and the “effect on (−)-105-induced cell death” value ([8]; 30 minutes) was “nearly completely blocked”.

`CC(=O)O[C@H]1C(=O)[C@@]2(C)[C@H]([C@H](OC(=O)c3ccccc3)[C@]3(O)C[C@H](OC(=O)[C@H](O)[C@@H](NC(=O)c4ccccc4)c4ccccc4)C(C)=C1C3(C)C)[C@]1(OC(C)=O)CO[C@@H]1C[C@@H]2O` [paclitaxel] was tested, and the “effect on tumor growth / tumors” value [9] was “ineffective”.

`O=C1Nc2c(C(F)(F)F)cccc2C1(c1ccc(O)cc1)c1ccc(OC(F)(F)F)cc1` (racemic) [(±)-105, 3-(4-hydroxyphenyl)-3-(4-(trifluoromethoxy)phenyl)-7-(trifluoromethyl)indolin-2-one] was tested, and the “ability to kill TDG cells compared to BHPI” value ([2]; 75 nM) was “greatly increased ability to kill”, the “ability to kill TYS cells compared to BHPI” value ([10]; 35 nM) was “greatly increased ability to kill” and the “ability to kill TYS cells compared to BHPI” value ([10]; 50 nM) was “increased ability to kill”. For the same molecule, the “death of ERα Negative MCF-10A cells” value [6] was “neither BHPI nor any of the test compounds induce significant death”, the “effectiveness … compared to BHPI” value [1] was “more effective than BHPI” and the “selectivity for ERα positive cancer cell lines” value ([4]; 0-10,000 nM, 24 hours) was “selective for ERα positive cancer cell lines”. The “killing of Caov-3 ovarian cancer cells” value [11] was “kills”.
